Experimental data from US20220226342A1, “COMPOSITIONS AND METHODS OF TREATING LIVER CANCERS” (The Johns Hopkins University, priority 2019, published 2022).

Columns and labels:
40 HCC PDO lines = assay: 10 μM drug screening, cell viability at 96 h (CellTiter-Glo); type: cell-based, human; settings: one HCC PDO line, 96 h
Protocol: FIG. 2A-2E. 10 μM drug screening and IC50 calculation across 40 PDOs from 20 HCC patients. (2A). 10 μM drug screening of omacetaxine and sorafenib, regorafenib, lenvatinib and cabozantinib on 40 PDOs derived from 20 HCC patients. X axis—the 40 PDO lines, Y axis—Cell viability. (2B). IC50 curve of 40 PDO lines, x-axis—omacetaxine dose, Y axis—Relative cell viability. (2C). […] (2D). IC50 distribution of 40 HCC PDOs. X axis—PDO lines, Y axis—IC50 number of omacetaxine for each PDO.
As readout of drug effectiveness, cell viability at 96 hours (h) was measured. White light microscopy images of one of the HCC PDO lines across 129 drugs was prepared. In FIG. 2E, each panel represents the image collected at 96 hours after treatment with each drug, at a concentration of 10 μM. […] To quantify survival, we implemented CellTiter-Glo, a luminescent cell viability assay. A total of 129 readings (one for each drug) was obtained for each of the 40 PDO lines, for a total of […] data points. […] Next, the inventors contrasted the survival of the […] HCC PDO lines when treated with omacetaxine versus current FDA approved drugs for HCC.

HCC patients [1] = settings: clinical trial; cited from earlier work
HCC patients [2] = settings: cited from earlier work

| Compound | white light microscopy image of organoids (40 HCC PDO lines) | efficacy compared to sorafenib (HCC patients [1]) | median increase in life span (HCC patients [2]; HCC patients) [months] | median survival of HCC patients (HCC patients [2]; SHARP trial, extended from 7.9) [months] |
| --- | --- | --- | --- | --- |
| CC(C)C[C@H](NC(=O)[C@H](Cc1ccccc1)NC(=O)c1cnccn1)B(O)O [bortezomib] | induce cell destruction |  |  |  |
| COc1cc2nccc(Oc3ccc(NC(=O)NC4CC4)c(Cl)c3)c2cc1C(N)=O [lenvatinib] |  | non-inferior efficacy |  |  |
| CNC(=O)c1cc(Oc2ccc(NC(=O)Nc3ccc(Cl)c(C(F)(F)F)c3)cc2)ccn1 [sorafenib] | allow unrestricted organoid growth |  | 9.2 | 10.7 |
